The target in test [1] is T1, Human fibrinogen receptor (αIIbβ3) (Homo sapiens, UniProt P05106+P08514).
T1 construct: Human fibrinogen receptor (αIIbβ3) was purified from outdated platelets; from tissue; host or cells: outdated (human) platelets
The test is described as follows: Purified IIb/IIIa receptor assay (solid phase receptor assay, competition with biotinylated vitronectin). It is filed as binding. Particulars: purified receptor from outdated platelets; 1 nM biotinylated vitronectin; highest concentration tested 1.0 x 10^-4 M. The source says: PURIFIED IIb/IIIa RECEPTOR ASSAY
Human fibrinogen receptor (αIIbβ3) was purified from outdated platelets. (Pytela, R., Pierschbacher, M.D., Argraves, S., Suzuki, S., and Rouslahti, E. "Arginine-Glycine-Aspartic acid adhesion receptors", Methods in Enzymology 144(1987):475-489.) Human vitronectin was purified from fresh frozen plasma as described in Yatohgo, T., Izumi, M., Kashiwagi, H., and Hayashi, M., "Novel purification of vitronectin from human plasma by heparin affinity chromatography," Cell Structure and Function 13(1988):281-292. Biotinylated human vitronectin was prepared by coupling NHS-biotin from Pierce Chemical Company (Rockford, IL) to purified vitronectin as previously described. (Charo, I.F., Nannizzi, L., Phillips, D.R., Hsu, M.A., Scarborough, R.M., "Inhibition of fibrinogen binding to GP IIb/IIIa by a GP IIIa peptide", J. Biol. Chem. 266(3)(1991): 1415-1421.) Assay buffer, OPD substrate tablets, and RIA grade BSA were obtained from Sigma (St. Louis, MO). Anti-biotin antibody was obtained from Calbiochem (La Jolla, CA). Linbro microtiter plates were obtained from Flow Labs (McLean, VA). ADP reagent was obtained from Sigma (St. Louis, MO).
This assay is essentially the same reported in Niiya, K., Hodson, E., Bader, R., Byers-Ward, V. Koziol, J.A., Plow, E.F. and Ruggeri, Z.M., "Increased surface expression of the membrane glycoprotein IIb/IIIa complex induced by platelet activation: Relationships to the binding of fibrinogen and platelet aggregation", Blood 70(1987):475-483. The purified human fibrinogen receptor (αIIbβ3) was diluted from stock solutions to 1.0 µg/mL in Tris-buffered saline containing 1.0 mM Ca^++, Mg^++, and Mn^++, pH 7.4 (TBS^+++). The diluted receptor was immediately transferred to Linbro microtiter plates at 100 µL/well (100 ng receptor/well). The plates were sealed and incubated overnight at 4°C to allow the receptor to bind to the wells. All remaining steps were at room temperature. The assay plates were emptied and 200 µL of 1% RIA grade BSA in TBS^+++ (TBS^+++/BSA) were added to block exposed plastic surfaces. Following a 2 hour incubation, the assay plates were washed with TBS^+++ using a 96 well plate washer. Logarithmic serial dilution of the test compound and controls were made starting at a stock concentration of 2 mM and using 2 nM biotinylated vitronectin in TBS^+++/BSA as the diluent. This premixing of labeled ligand with test (or control) ligand, and subsequent transfer of 50 µL aliquots to the assay plate was carried out with a CETUS Propette robot; the final concentration of the labeled ligand was 1 nM and the highest concentration of test compound was 1.0 x 10^-4 M. The competition occurred for two hours after which all wells were washed with a plate washer as before. Affinity purified horseradish peroxidase labeled goat anti-biotin antibody was diluted 1:3000 in TBS^+++/BSA and 125 µL were added to each well. After 30 minutes, the plates were washed and incubated with […] substrate in 100 mM/L citrate buffer, pH 5.0. The plate was read with a microtiter plate reader at a wavelength of 450 nm and when the maximum-binding control wells reached an absorbance of about 1.0, the final A450 were recorded for analysis. The data were analyzed using a macro written for use with the EXCEL™ spreadsheet program. The mean, standard deviation, and %CV were determined for duplicate concentrations. The mean A450 values were normalized to the mean of four maximum-binding controls (no competitor added)(B-MAX). The normalized values were subjected to a four parameter curve fit algorithm, [Robard et al., Int. […]

Test [2] deals with T2, Human vitronectin receptor (αvβ3) (Homo sapiens, UniProt P05106+P06756).
T2 construct: Human vitronectin receptor (αvβ3) was purified from human placenta; from tissue; host or cells: human placenta
The test is described as follows: Vitronectin adhesion assay (solid phase receptor assay, competition with biotinylated vitronectin). The class given is binding. The procedure: VITRONECTIN ADHESION ASSAY
Human vitronectin receptor (αvβ3) was purified from human placenta as previously described [Pytela et al., Methods in Enzymology, 144:475-489 (1987)]. Human vitronectin was purified from fresh frozen plasma as previously described [Yatohgo et al., Cell Structure and Function, 13:281-292 (1988)]. Biotinylated human vitronectin was prepared by coupling NHS-biotin from Pierce Chemical Company (Rockford, IL) to purified vitronectin as previously described [Charo et al., J. Biol. Chem., 266(3):1415-1421 (1991)]. Assay buffer, OPD substrate tablets, and RIA grade BSA were obtained from Sigma (St. Louis, MO). Anti-biotin antibody was obtained from Calbiochem (La Jolla, CA). Linbro microtiter plates were obtained from Flow Labs (McLean, VA). ADP reagent was obtained from Sigma (St. Louis, MO).
This assay was essentially the same as previously reported [Niiya et al., Blood, 70:475-483 (1987)]. The purified human vitronectin receptor (αvβ3) was diluted from stock solutions to 1.0 µg/mL in Tris-buffered saline containing 1.0 mM Ca^++, Mg^++, and Mn^++, pH 7.4 (TBS^+++). The diluted receptor was immediately transferred to Linbro microtiter plates at 100 µL/well (100 ng receptor/well). The plates were sealed and incubated overnight at 4°C to allow the receptor to bind to the wells. All remaining steps were at room temperature. The assay plates were emptied and 200 µL of 1% RIA grade BSA in TBS^+++ (TBS^+++/BSA) were added to block exposed plastic surfaces. Following a 2 hour incubation, the assay plates were washed with TBS^+++ using a 96 well plate washer. Logarithmic serial dilution of the test compound and controls were made starting at a stock concentration of 2 mM and using 2 nM biotinylated vitronectin in TBS^+++/BSA as the diluent. This premixing of labeled ligand with test (or control) ligand, and subsequent transfer of 50 µL aliquots to the assay plate was carried out with a CETUS Propette robot; the final concentration of the labeled ligand was 1 nM and the highest concentration of test compound was 1.0 x 10^-4 M. The competition occurred for two hours after which all wells were washed with a plate washer as before. Affinity purified horseradish peroxidase labeled goat anti-biotin antibody was diluted 1:3000 in TBS^+++/BSA and 125 µL were added to each well. After 30 minutes, the plates were washed and incubated with OPD/H2O2 substrate in 100 mM/L Citrate buffer, pH 5.0. The plate was read with a microtiter plate reader at a wavelength of 450 nm and when the maximum-binding control wells reached an absorbance of about 1.0, the final A450 were recorded for analysis. The data were analyzed using a macro written for use with the EXCEL™ spreadsheet program. The mean, standard deviation, and %CV were determined for duplicate concentrations. The mean A450 values were normalized to the mean of four maximum-binding controls (no competitor added)(B-MAX). The normalized values were subjected to a four parameter curve fit algorithm [Rodbard et al., Int.

Where [3] appears, read: purified receptor from human placenta; 1 nM biotinylated vitronectin; highest concentration tested 1.0 x 10^-4 M; read-out: AvB3 IC50.

Each structure is given as a SMILES string. Structures can show the parent of a compound that is named as a salt. Where two headings read alike, the source gives them in different places.

As usually defined, the IC50 is the midpoint of a concentration-inhibition curve. Turning to `CC(C)OC(=O)NC(Cc1ccc(NC(=O)c2cccc(N=C(N)N)c2)cc1)C(=O)O` (stereo not shown) [Example 50, trifluoroacetate salt], the figures for the IC50 in test [1] and in test [2] (setting [3]) were 21.7 nM and 0.8 nM, respectively.
As to `N=C(N)Nc1cccc(C(=O)Nc2ccc(CC(NS(=O)(=O)c3ccccc3)C(=O)O)cc2)c1` (stereo not shown) [Example 51, trifluoroacetate salt], the half-maximal inhibitory concentration (IC50) was determined as 0.71 nM in test [1] and 0.63 nM in test [2] (setting [3]).
The corresponding values for `CCCCS(=O)(=O)NC(Cc1ccc(NC(=O)c2cccc(NC(=N)N)c2)cc1)C(=O)O` (stereo not shown) [Example 52, trifluoroacetate salt] are 1.88 nM and 0.33 nM.
On to `CC(C)(C)OC(=O)NC(Cc1ccc(NC(=O)c2cccc(N=C(N)N)c2)cc1)C(=O)O` (stereo not shown) [Example 55, 4-[[[3-[(aminoiminomethyl)amino]phenyl]carbonyl]amino]-N-[(1,1-dimethylethoxy)carbonyl]-phenylalanine, monohydrate trifluoroacetate salt], for which the results for the 50% inhibitory concentration (IC50) in test [1] and in test [2] (setting [3]) were 14.3 nM and 0.51 nM, respectively.
Taken in the same sequence, the figures for `CC(C)(C)OC(=O)N[C@@H](Cc1ccc(NC(=O)c2cccc(NC(=N)N)c2)cc1)C(=O)O` [Example 56, trifluoroacetate salt] were 6.35 nM and 0.43 nM.
Consider `CC(C)(C)OC(=O)N[C@H](Cc1ccc(NC(=O)c2cccc(NC(=N)N)c2)cc1)C(=O)O` [Example 57, 4-[[[3-[(aminoiminomethyl)amino]phenyl]carbonyl]amino]-N-[(1,1-dimethylethoxy)carbonyl]-D-phenylalanine, monohydrate trifluoroacetate salt], for which the half-maximal inhibitory concentration (IC50) in test [1] came to 318 nM; in test [2] (setting [3]), 14.5 nM.
With `CC(C)(C)OC(=O)CCc1ccc(CCNC(=O)c2cccc(NC(=N)N)c2)cc1` [Example 58, monohydrate trifluoroacetate salt], the IC50 in test [1] worked out at 57200 nM; in test [2] (read-out: AvB3 IC50; purified receptor from human placenta; 1 nM biotinylated vitronectin; highest concentration tested 1.0 x 10^-4 M), 48400 nM.
As to `N=C(N)Nc1cccc(C(=O)NCCc2ccc(CCC(=O)O)cc2)c1` [Example 59, 4-[2-[[[3-[(aminoiminomethyl)amino]phenyl]carbonyl]amino]ethyl]benzenepropanoic acid, trifluoroacetate salt], the IC50 in test [1] worked out at 478 nM; in test [2] (setting [3]), 4480 nM.
Taken in the same sequence, the figures for `CCOC(=O)CCc1ccc(N(C)C(=O)c2cccc(NC(=N)N)c2)cc1` [Example 60, ethyl 4-[[[3-[(aminoiminomethyl)amino]phenyl]carbonyl]methylamino]benzenepropanoate, trifluoroacetate salt] were 3810 nM and 3370 nM.
On to `CN(C(=O)c1cccc(NC(=N)N)c1)c1ccc(CCC(=O)O)cc1` [Example 61, 4-[[[3-[(aminoiminomethyl)amino]phenyl]carbonyl]methylamino]benzenepropanoic acid, monohydrate trifluoroacetate salt], for which the IC50 was determined as 666 nM in test [1] and 470 nM in test [2] (setting [3]).
As for `N=C(N)Nc1cccc(S(=O)(=O)Nc2ccc(CCC(=O)O)cc2)c1` [Example 62, 4-[[[3-[(aminoiminomethyl)amino]phenyl]sulfonyl]amino]benzenepropanoic acid, trifluoroacetate salt], the IC50 in test [1] is 14800 nM; in test [2] (setting [3]), 28100 nM.
For the molecule `NC(N)=Nc1cccc(C(=O)Nc2ccc(CCC(=O)O)cc2)c1` [Example 64, 4-[[[3-[(aminoiminomethyl)amino]phenyl]carbonyl]amino]benzenepropanoic acid, hydrochloride], the IC50 in test [1] worked out at 93.1 nM; in test [2] (setting [3]), 21.2 nM.
The corresponding values for `N=C(N)Nc1cccc(C(=O)Nc2ccc(CC(N)C(=O)O)cc2)c1` (stereo not shown) [Example 65, 4-[[[3-[(aminoiminomethyl)amino]phenyl]carbonyl]amino]phenylalanine, trifluoroacetate salt] are 21900 nM and 4760 nM.
With `CC(=O)NC(Cc1ccc(NC(=O)Nc2cccc(NC(=N)N)c2)cc1)C(=O)O` (stereo not shown) [Example 68, N-acetyl-4-[[[[3-[(aminoiminomethyl)amino]phenyl]amino]carbonyl]amino]phenylalanine, trifluoroacetate salt], the values for the IC50 in test [1] and in test [2] (setting [3]) were 103 nM and 782 nM, respectively.
The corresponding values for `CCOC(=O)C(CC(=O)O)c1ccc(NC(=O)c2cccc(NC(=N)N)c2)cc1` (stereo not shown) [Example 71, 1-ethyl hydrogen[4-[[[3-[(aminoiminomethyl)amino]phenyl]carbonyl]amino]-phenyl]butanedioate, trifluoroacetate salt] are 8.3 nM and 38.7 nM.
The corresponding values for `CC(C)OC(=O)NC(Cc1ccc(NC(=O)c2cccc(NC3=NC(=O)CN3)c2)cc1)C(=O)O` (stereo not shown) [Example 77, 4-[[[3-[(4,5-dihydro-4-oxo-lH-imidazol-2-yl)amino]phenyl]carbonyl]amino]-N-[(1-methylethoxy)-carbonyl]phenylalanine] are 1260 nM and 1.6 nM.
The corresponding values for `N#CN=C(NCc1ccccc1)Nc1cccc(C(=O)Nc2ccc(CCC(=O)O)cc2)c1` [Example 79, 4-[[[3-[[(cyanoimino)[(phenylmethyl)-amino]methyl]amino]phenyl]carbonyl]amino]-benzenepropanoic acid] are 10200 nM and 2290 nM.

(Values after patent EP1157985A1 (G.D. SEARLE & CO., priority 1996, dated 1997).)
